# Results from patent publication US9708314B2, “Heterocyclic amide compound” (NISSAN CHEMICAL INDUSTRIES, LTD., priority 2013, dated 2017).
# Assays:
# Amaranthus retroflexus = assay: Test Example 4: herbicidal effect by application to foliage (diluvial soil, plastic box); type: in vivo; details: for N (Amaranthus retroflexus) herbicidal effect: application herbicide amount 320 g/ha; for N (Amaranthus retroflexus) herbicidal effect grade: foliage application
# Summary of the method: (§1)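 Scores run from 0 (herbicidal ratio ≤5%) to 5 (≥90%, almost fully withered) and were assessed three weeks after foliar spraying. Seedlings had been raised for 14 days at 25-30° C in sterilized diluvial soil before treatment, with the emulsion diluted in water to the stated g/ha dose.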
# Stellaria media = assay: as above; type: in vivo; details: for P (Stellaria media) herbicidal effect: application herbicide amount 320 g/ha; for P (Stellaria media) herbicidal effect grade: foliage application
# Summary of the method: as §1
# [1] = tested on: transplanted Oryza sativa; assay: Test Example 1: effect on crop, application before weed generation in submerged conditions; type: in vivo; details: Seventeenth Table
# Summary of the method: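 Alluvial soil in Wagner pots flooded to 4 cm water depth; weed seeds sown and 2.5 leaf stage rice seedlings transplanted. Emulsion diluted in water applied to water surface on sowing day at stated g/ha. Greenhouse 25° C. to 30° C.; effects scored 0–5 by herbicidal ratio after three weeks.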
# [2] = Application herbicide amount 320 g/ha
# [3] = Application herbicide amount 288 g/ha
# [4] = application to foliage, 141 g/ha
SMILES,N (Amaranthus retroflexus) herbicidal effect (Amaranthus retroflexus; application to foliage),P (Stellaria media) herbicidal effect (Stellaria media; application to foliage),"a: transplanted Oryza sativa (effect on crop grade) [1, 2]",other results
"Cc1nnc(NC(=O)c2ccc(C(F)(F)F)n3c(C(C)C)nnc23)o1 [1-004, 3-Isopropyl-N-(5-methyl-1,3,4-oxadiazol-2-yl)-5-(trifluoromethyl)-[1,2,4]triazolo[4,3-a]pyridine-8-carboxamide]",4 (Herbicidal ratio of 70% or more and less than 90%),5 (Herbicidal ratio of 90% or more (almost completely withered)),1 (Herbicidal ratio of 5% or more and less than 20%),melting point: 176 to 178 °C
CSCc1nnc2c(C(=O)Nc3nnc(C)o3)ccc(C(F)(F)F)n12 [1-030],5 (Herbicidal ratio of 90% or more (almost completely withered)),5 (Herbicidal ratio of 90% or more (almost completely withered)),0 (Herbicidal ratio of 5% or less (almost no effect)),
Cc1nnc(NC(=O)c2ccc(C(F)(F)F)n3c(CSCC(F)(F)F)nnc23)o1 [1-031],4 (Herbicidal ratio of 70% or more and less than 90%),4 (Herbicidal ratio of 70% or more and less than 90%),0 (Herbicidal ratio of 5% or less (almost no effect)),
CCSc1nnc2c(C(=O)Nc3nnc(C)o3)ccc(C(F)(F)F)n12 [1-032],5 (Herbicidal ratio of 90% or more (almost completely withered)),5 (Herbicidal ratio of 90% or more (almost completely withered)),2 (Herbicidal ratio of 20% or more and less than 40%),
Cc1nnc(NC(=O)c2ccc(C(F)(F)F)n3c(SC(C)C)nnc23)o1 [1-033],5 (Herbicidal ratio of 90% or more (almost completely withered)),5 (Herbicidal ratio of 90% or more (almost completely withered)),0 (Herbicidal ratio of 5% or less (almost no effect)),
CC[S+]([O-])c1nnc2c(C(=O)Nc3nnc(C)o3)ccc(C(F)(F)F)n12 (stereo not shown) [1-034],5 (Herbicidal ratio of 90% or more (almost completely withered)),5 (Herbicidal ratio of 90% or more (almost completely withered)),3 (Herbicidal ratio of 40% or more and less than 70%),
Cc1nnc(NC(=O)c2ccc(C(F)(F)F)n3c([S+]([O-])C(C)C)nnc23)o1 (stereo not shown) [1-035],5 (Herbicidal ratio of 90% or more (almost completely withered)),5 (Herbicidal ratio of 90% or more (almost completely withered)),2 (Herbicidal ratio of 20% or more and less than 40%),
Cc1nnc(NC(=O)c2ccc(C(F)(F)F)n3c(C[S+](C)[O-])nnc23)o1 (stereo not shown) [1-036],5 (Herbicidal ratio of 90% or more (almost completely withered)),5 (Herbicidal ratio of 90% or more (almost completely withered)),4 (Herbicidal ratio of 70% or more and less than 90%),
Cc1nnc(NC(=O)c2ccc(C(F)(F)F)n3c(CS(C)(=O)=O)nnc23)o1 [1-037],5 (Herbicidal ratio of 90% or more (almost completely withered)),4 (Herbicidal ratio of 70% or more and less than 90%),0 (Herbicidal ratio of 5% or less (almost no effect)),
Cc1nnc(NC(=O)c2ccc(C(F)(F)F)n3c(C[S+]([O-])CC(F)(F)F)nnc23)o1 (stereo not shown) [1-038],5 (Herbicidal ratio of 90% or more (almost completely withered)),5 (Herbicidal ratio of 90% or more (almost completely withered)),0 (Herbicidal ratio of 5% or less (almost no effect)),
Cc1nnc(NC(=O)c2ccc(C(F)(F)F)n3c(S(C)(=O)=O)nnc23)o1 [1-040],5 (Herbicidal ratio of 90% or more (almost completely withered)),5 (Herbicidal ratio of 90% or more (almost completely withered)),1 (Herbicidal ratio of 5% or more and less than 20%),
CCS(=O)(=O)c1nnc2c(C(=O)Nc3nnc(C)o3)ccc(C(F)(F)F)n12 [1-041],5 (Herbicidal ratio of 90% or more (almost completely withered)),5 (Herbicidal ratio of 90% or more (almost completely withered)),0 (Herbicidal ratio of 5% or less (almost no effect)),
CCOC(=O)Cc1nnc2c(C(=O)Nc3nnc(C)o3)ccc(C(F)(F)F)n12 [1-042],4 (Herbicidal ratio of 70% or more and less than 90%),4 (Herbicidal ratio of 70% or more and less than 90%),0 (Herbicidal ratio of 5% or less (almost no effect)),
Cc1ccc(-c2nnc3c(C(=O)Nc4nnc(C)o4)ccc(C(F)(F)F)n23)cc1 [1-043],5 (Herbicidal ratio of 90% or more (almost completely withered)),4 (Herbicidal ratio of 70% or more and less than 90%),3 (Herbicidal ratio of 40% or more and less than 70%),
Cc1nnc(NC(=O)c2ccc(C(F)(F)F)n3c(-c4ccc(F)cc4)nnc23)o1 [1-044],5 (Herbicidal ratio of 90% or more (almost completely withered)),4 (Herbicidal ratio of 70% or more and less than 90%),1 (Herbicidal ratio of 5% or more and less than 20%),
COc1cccc(-c2nnc3c(C(=O)Nc4nnc(C)o4)ccc(C(F)(F)F)n23)c1 [1-046],5 (Herbicidal ratio of 90% or more (almost completely withered)),4 (Herbicidal ratio of 70% or more and less than 90%),2 (Herbicidal ratio of 20% or more and less than 40%),
COc1ccccc1-c1nnc2c(C(=O)Nc3nnc(C)o3)ccc(C(F)(F)F)n12 [1-047],5 (Herbicidal ratio of 90% or more (almost completely withered)),4 (Herbicidal ratio of 70% or more and less than 90%),1 (Herbicidal ratio of 5% or more and less than 20%),
Cc1nnc(NC(=O)c2ccc(C(F)(F)F)n3c(CC(=O)O)nnc23)o1 [1-048],4 (Herbicidal ratio of 70% or more and less than 90%),4 (Herbicidal ratio of 70% or more and less than 90%),1 (Herbicidal ratio of 5% or more and less than 20%),
Cc1nnc(NC(=O)c2ccc(C(F)(F)F)n3c(CC(=O)OC(C)C)nnc23)o1 [1-049],5 (Herbicidal ratio of 90% or more (almost completely withered)),4 (Herbicidal ratio of 70% or more and less than 90%),0 (Herbicidal ratio of 5% or less (almost no effect)),
CC(C)c1nnc2c(C(=O)Nc3nnco3)ccc(C(F)(F)F)n12 [1-050],5 (Herbicidal ratio of 90% or more (almost completely withered)),5 (Herbicidal ratio of 90% or more (almost completely withered)),2 (Herbicidal ratio of 20% or more and less than 40%),
CC(C)c1nnc2c(C(=O)Nc3nnc(C4CC4)o3)ccc(C(F)(F)F)n12 [1-051],3 (Herbicidal ratio of 40% or more and less than 70%),3 (Herbicidal ratio of 40% or more and less than 70%),0 (Herbicidal ratio of 5% or less (almost no effect)),
COCCc1nnc(NC(=O)c2ccc(C(F)(F)F)n3c(C(C)C)nnc23)o1 [1-052],4 (Herbicidal ratio of 70% or more and less than 90%),2 (Herbicidal ratio of 20% or more and less than 40%),0 (Herbicidal ratio of 5% or less (almost no effect)),
Cc1nnc(NC(=O)c2ccc(C(F)F)n3c(C(C)C)nnc23)o1 [1-053],4 (Herbicidal ratio of 70% or more and less than 90%),2 (Herbicidal ratio of 20% or more and less than 40%),0 (Herbicidal ratio of 5% or less (almost no effect)),
C=CCSc1nnc2c(C(=O)Nc3nnco3)ccc(C(F)(F)F)n12 [1-128],,,,"N (Amaranthus retroflexus) herbicidal effect grade (Amaranthus retroflexus; [3]): 3 (Herbicidal ratio of 40% or more and less than 70%); P (Stellaria media) herbicidal effect grade (Stellaria media; [3]): 5 (Herbicidal ratio of 90% or more (almost completely withered)); a: transplanted Oryza sativa (effect on crop grade) [1, 3]: 0 (Herbicidal ratio of 5% or less (almost no effect))"
Cc1cc(C(=O)Nc2nnnn2C)c2nnc(C(C)C)n2c1C(F)(F)F [2-050],,,,N (Amaranthus retroflexus) herbicidal effect grade (Amaranthus retroflexus; 192 g/ha): 2 (Herbicidal ratio of 20% or more and less than 40%); P (Stellaria media) herbicidal effect grade (Stellaria media; 192 g/ha): 3 (Herbicidal ratio of 40% or more and less than 70%); a: transplanted Oryza sativa (effect on crop grade) ([1]; Application herbicide amount 192 g/ha): 2 (Herbicidal ratio of 20% or more and less than 40%)
CCN(C)c1nnc2c(C(=O)Nc3nnnn3C)ccc(C(F)(F)F)n12 [2-088],,,,"herbicidal effect, N (Amaranthus retroflexus) (Amaranthus retroflexus; [4]): 5 (Herbicidal ratio of 90% or more (almost completely withered)); herbicidal effect, P (Stellaria media) (Stellaria media; [4]): 5 (Herbicidal ratio of 90% or more (almost completely withered)); a: transplanted Oryza sativa (effect on crop grade) ([1]; Application herbicide amount 141 g/ha): 3 (Herbicidal ratio of 40% or more and less than 70%)"
